target: GMPPNP-loaded KRAS G12C (Homo sapiens, UniProt P01116, G12C); experiment: KRAS G12C RAF Disruption Assay (HTRF); assay type: biochemical; conditions: recombinant GMPPNP-loaded KRAS G12C (5 nM), 20 min with compound; GST-RAF1 RBD (9 nM); HTRF signal; read-out: KRASG12C RAF Disruption Assay (IC50)
Procedure: KRAS^G12C RAF Disruption Assay
This is a functional assay that measures activity of compounds against KRAS-G12C^(ON), i.e., the active form of KRAS G12C. Recombinant GMPPNP-loaded KRAS G12C (5 nM) was treated with compound at room temperature for 20 minutes in assay buffer (50 mM Tris pH 7.5, 100 mM NaCl, 1 mM MgCl2, 1 mM DTT, 100ug/ml BSA). Recombinant GST-RAF1 RBD (9 nM) was added, and the reaction mixture was incubated for 20 minutes. SA-Tb (0.25 nM) was added, and the reaction mixture was incubated for 3 hours. HTRF signal was measured (PerkinElmer Envision), the signal ratio (λem 520/λem 495) was calculated, and IC50 values were calculated from the dose-response curve.

GMPPNP-loaded KRAS G12C, sequence (P01116 1-188 isoform P01116-2 G12C): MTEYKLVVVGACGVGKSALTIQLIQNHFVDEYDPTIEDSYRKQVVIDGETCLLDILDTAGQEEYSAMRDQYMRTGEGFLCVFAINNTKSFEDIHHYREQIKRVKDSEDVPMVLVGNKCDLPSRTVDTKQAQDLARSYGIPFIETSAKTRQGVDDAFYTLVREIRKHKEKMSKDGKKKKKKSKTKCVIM

| Compound | IC50 |
| --- | --- |
| C#Cc1c(F)ccc2cc(O)cc(-c3ncc4c(N5C[C@H]6CC[C@@H](C5)N6C(=O)/C(F)=C/c5nccs5)nc(OC[C@@]56CCCN5C[C@H](F)C6)nc4c3F)c12 [Compound 1, (Z)-1-((1R, 5S)-3-(7-(8-ethynyl-7-fluoro-3-hydroxynaphthalen-1-yl)-8-fluoro-2-(((2R, 7aS)-2-fluorotetrahydro-1H-pyrrolizin-7a(5H)-yl)methoxy)pyrido[4,3-d]pyrimidin-4-yl)-3,8-diazabicyclo[3.2.1]octan-8-yl)-2-fluoro-3-(thiazol-2-yl)prop-2-en-1-one] | 27 nM |
| C#Cc1c(F)ccc2cc(O)cc(-c3ncc4c(N5C[C@H]6CC[C@@H](C5)N6C(=O)/C(F)=C/c5ccccn5)nc(OC[C@@]56CCCN5C[C@H](F)C6)nc4c3F)c12 [Compound 2, (Z)-1-((1R, 5S)-3-(7-(8-ethynyl-7-fluoro-3-hydroxynaphthalen-1-yl)-8-fluoro-2-(((2R, 7aS)-2-fluorotetrahydro-1H-pyrrolizin-7a(5H)-yl)methoxy)pyrido[4,3-d]pyrimidin-4-yl)-3,8-diazabicyclo[3.2.1]octan-8-yl)-2-fluoro-3-(pyridin-2-yl)prop-2-en-1-one] | 32 nM |
| C#Cc1c(F)ccc2cc(O)cc(-c3ncc4c(N5C[C@H]6CC[C@@H](C5)N6C(=O)/C(F)=C/c5cc(C)ccn5)nc(OC[C@@]56CCCN5C[C@H](F)C6)nc4c3F)c12 [Compound 3, (Z)-1-((1R, 5S)-3-(7-(8-ethynyl-7-fluoro-3-hydroxynaphthalen-1-yl)-8-fluoro-2-(((2R, 7aS)-2-fluorotetrahydro-1H-pyrrolizin-7a(5H)-yl)methoxy)pyrido[4,3-d]pyrimidin-4-yl)-3,8-diazabicyclo[3.2.1]octan-8-yl)-2-fluoro-3-(4-methylpyridin-2-yl)prop-2-en-1-one] | 19 nM |
| C#Cc1c(F)ccc2cc(O)cc(-c3ncc4c(N5C[C@H]6CC[C@@H](C5)N6C(=O)/C(F)=C/c5ncco5)nc(OC[C@@]56CCCN5C[C@H](F)C6)nc4c3F)c12 [Compound 4, (Z)-1-((1R, 5S)-3-(7-(8-ethynyl-7-fluoro-3-hydroxynaphthalen-1-yl)-8-fluoro-2-(((2R, 7aS)-2-fluorotetrahydro-1H-pyrrolizin-7a(5H)-yl)methoxy)pyrido[4,3-d]pyrimidin-4-yl)-3,8-diazabicyclo[3.2.1]octan-8-yl)-2-fluoro-3-(oxazol-2-yl)prop-2-en-1-one] | 260 nM |
| C#Cc1c(F)ccc2cc(O)cc(-c3ncc4c(N5C[C@H]6CC[C@@H](C5)N6C(=O)/C(F)=C/c5nccn5C)nc(OC[C@@]56CCCN5C[C@H](F)C6)nc4c3F)c12 [Compound 5, (Z)-1-((1R, 5S)-3-(7-(8-ethynyl-7-fluoro-3-hydroxynaphthalen-1-yl)-8-fluoro-2-(((2R, 7aS)-2-fluorotetrahydro-1H-pyrrolizin-7a(5H)-yl)methoxy)pyrido[4,3-d]pyrimidin-4-yl)-3,8-diazabicyclo[3.2.1]octan-8-yl)-2-fluoro-3-(1-methyl-1H-imidazol-2-yl)prop-2-en-1-one] | 79 nM |
| C#Cc1c(F)ccc2cc(O)cc(-c3ncc4c(N5C[C@H]6CC[C@@H](C5)N6C(=O)/C(F)=C/c5ccc(C)cn5)nc(OC[C@@]56CCCN5C[C@H](F)C6)nc4c3F)c12 [Compound 6, (Z)-1-((1R, 5S)-3-(7-(8-ethynyl-7-fluoro-3-hydroxynaphthalen-1-yl)-8-fluoro-2-(((2R, 7aS)-2-fluorotetrahydro-1H-pyrrolizin-7a(5H)-yl)methoxy)pyrido[4,3-d]pyrimidin-4-yl)-3,8-diazabicyclo[3.2.1]octan-8-yl)-2-fluoro-3-(5-methylpyridin-2-yl)prop-2-en-1-one] | 45 nM |
| C#Cc1c(F)ccc2cc(O)cc(-c3ncc4c(N5C[C@H]6CC[C@@H](C5)N6C(=O)/C(F)=C/c5ncccn5)nc(OC[C@@]56CCCN5C[C@H](F)C6)nc4c3F)c12 [Compound 7, (Z)-1-((1R, 5S)-3-(7-(8-ethynyl-7-fluoro-3-hydroxynaphthalen-1-yl)-8-fluoro-2-(((2R, 7aS)-2-fluorotetrahydro-1H-pyrrolizin-7a(5H)-yl)methoxy)pyrido[4,3-d]pyrimidin-4-yl)-3,8-diazabicyclo[3.2.1]octan-8-yl)-2-fluoro-3-(pyrimidin-yl)prop-2-en-1-one] | 16 nM |
| C#Cc1c(F)ccc2cc(O)cc(-c3ncc4c(N5CC6CCC(C5)N6C(=O)/C(Cl)=C/c5ccccn5)nc(OC[C@@]56CCCN5C[C@H](F)C6)nc4c3F)c12 [Compound 8, (Z)-1-((1R, 5S)-3-(7-(8-ethynyl-7-fluoro-3-hydroxynaphthalen-1-yl)-8-fluoro-2-(((2R, 7aS)-2-fluorotetrahydro-1H-pyrrolizin-7a(5H)-yl)methoxy)pyrido[4,3-d]pyrimidin-4-yl)-3,8-diazabicyclo[3.2.I]octan-8-yl)-2-chloro-3-(pyridin-yl)prop-2-en-1-one] | 1300 nM |
| C#Cc1c(F)ccc2cc(O)cc(-c3ncc4c(N5C[C@H]6CC[C@@H](C5)N6C(=O)/C(F)=C/c5ccc(Br)cn5)nc(OC[C@@]56CCCN5C[C@H](F)C6)nc4c3F)c12 [Compound 9, (Z)-3-(5-bromopyridin-2-yl)-1-((1R, 5S)-3-(7-(8-ethynyl-7-fluoro-3-hydroxynaphthalen-1-yl)-8-fluoro-2-(((2R, 7aS)-2-fluorotetrahydro-1H-pyrrolizin-7a(5H)-yl)methoxy)pyrido[4,3-d]pyrimidin-4-yl)-3,8-diazabicyclo[3.2.1]octan-8-yl)-2-fluoroprop-2-en-1-one] | 350 nM |

The remaining lines, values ahead:

| IC50 | Compound |
| --- | --- |
| 450 nM | C#Cc1c(F)ccc2cc(O)cc(-c3ncc4c(N5CC6CCC(C5)N6C(=O)/C(F)=C/c5nc(Br)cs5)nc(OC[C@@]56CCCN5C[C@H](F)C6)nc4c3F)c12 [Compound 11, (Z)-3-(4-bromothiazol-2-yl)-1-((JR, 5S)-3-(7-(8-ethynyl-7-fluoro-3-hydroxynaphthalen-1-yl)-8-fluoro-2-(((2R, 7aS)-2-fluorotetrahydro-1H-pyrrolizin-7a(5H)-yl)methoxy)pyrido[4,3-d]pyrimidin-4-yl)-3,8-diazabicyclo[3.2.1]octan-8-yl)-2-fluoroprop-2-en-1-one] |
| 11 nM | C#Cc1c(F)ccc2cc(O)cc(-c3ncc4c(N5C[C@H]6CC[C@@H](C5)N6C(=O)/C(F)=C/c5cccnn5)nc(OC[C@@]56CCCN5C[C@H](F)C6)nc4c3F)c12 [Compound 12, (Z)-1-((1R, 5S)-3-(7-(8-ethynyl-7-fluoro-3-hydroxynaphthalen-1-yl)-8-fluoro-2-(((2R, 7aS)-2-fluorotetrahydro-1H-pyrrolizin-7a(5H)-yl)methoxy)pyrido[4,3-d]pyrimidin-4-yl)-3,8-diazabicyclo[3.2.1]octan-8-yl)-2-fluoro-3-(pyridazin-3-yl)prop-2-en-1-one] |
| 38 nM | C#Cc1c(F)ccc2cc(O)cc(-c3ncc4c(N5C[C@@]6(NC(=O)/C(F)=C/c7ccccn7)CC[C@@H]5C6)nc(OC[C@@]56CCCN5C[C@H](F)C6)nc4c3F)c12 [Compound 13, (Z)—N-((1R, 4R)-2-(7-(8-ethynyl-7-fluoro-3-hydroxynaphthalen-1-yl)-8-fluoro-2-(((2R, 7aS)-2-fluorotetrahydro-1H-pyrrolizin-7a(5H)-yl)methoxy)pyrido[4,3-d]pyrimidin-4-yl)-2-azabicyclo[2.2.1]heptan-4-yl)-2-fluoro-3-(pyridin-2-yl)acrylamide] |
| 22 nM | C#Cc1c(F)ccc2cc(O)cc(-c3ncc4c(N5C[C@H]6CC[C@@H](C5)N6C(=O)/C(F)=C/c5nnc(C)s5)nc(OC[C@@]56CCCN5C[C@H](F)C6)nc4c3F)c12 [Compound 14, (Z)-1-((1R, 5S)-3-(7-(8-ethynyl-7-fluoro-3-hydroxynaphthalen-1-yl)-8-fluoro-2-(((2R, 7aS)-2-fluorotetrahydro-1H-pyrrolizin-7a(5H)-yl)methoxy)pyrido[4,3-d]pyrimidin-4-yl)-3,8-diazabicyclo[3.2.1]octan-8-yl)-2-fluoro-3-(5-methyl-1,3,4-thiadiazol-2-yl)prop-2-en-1-one] |
| 60 nM | C#Cc1c(F)ccc2cc(O)cc(-c3ncc4c(N5C[C@H]6CC[C@@H](C5)N6C(=O)/C(F)=C/c5cccc(COC)n5)nc(OC[C@@]56CCCN5C[C@H](F)C6)nc4c3F)c12 [Compound 15, (Z)-1-((1R, 5S)-3-(7-(8-ethynyl-7-fluoro-3-hydroxynaphthalen-1-yl)-8-fluoro-2-(((2R, 7aS)-2-fluorotetrahydro-1H-pyrrolizin-7a(5H)-yl)methoxy)pyrido[4,3-d]pyrimidin-4-yl)-3,8-diazabicyclo[3.2.1]octan-8-yl)-2-fluoro-3-(6-(methoxymethyl)pyridin-2-yl)prop-2-en-1-one] |
| 180 nM | C#Cc1c(F)ccc2cc(O)cc(-c3ncc4c(N5C[C@H]6CC[C@@H](C5)N6C(=O)/C(F)=C/c5cnccn5)nc(OC[C@@]56CCCN5C[C@H](F)C6)nc4c3F)c12 [Compound 16, (Z)-1-((1R, 5S)-3-(7-(8-ethynyl-7-fluoro-3-hydroxynaphthalen-1-yl)-8-fluoro-2-(((2R, 7aS)-2-fluorotetrahydro-1H-pyrrolizin-7a(5H)-yl)methoxy)pyrido[4,3-d]pyrimidin-4-yl)-3,8-diazabicyclo[3.2.1]octan-8-yl)-2-fluoro-3-(pyrazin-2-yl)prop-2-en-1-one] |
| 2600 nM | C#Cc1c(F)ccc2cc(O)cc(-c3ncc4c(N5C[C@H]6CC[C@@H](C5)N6C(=O)/C(F)=C/c5cccc(OC)n5)nc(OC[C@@]56CCCN5C[C@H](F)C6)nc4c3F)c12 [Compound 17, (Z)-1-((1R, 5S)-3-(7-(8-ethynyl-7-fluoro-3-hydroxynaphthalen-1-yl)-8-fluoro-2-(((2R, 7aS)-2-fluorotetrahydro-1H-pyrrolizin-7a(5H)-yl)methoxy)pyrido[4,3-d]pyrimidin-4-yl)-3,8-diazabicyclo[3.2.1]octan-8-yl)-2-fluoro-3-(6-methoxypyridin-2-yl)prop-2-en-1-one] |
